Laboratory results as given in US20120219568A1, “EPIDITHIODIOXO[…] USES THEREOF IN TREATING CANCER” (priority 2011, published 2012).

Columns and labels:
MCF-7 = experiment: MTT growth inhibition, MCF-7; format: cell-based; conditions: Homo sapiens, MCF7, Mammary Carcinoma, MTT assay
Experimental: (§1) For cell viability assay, cells were seeded in wells of 96-well plates for 2 days and then treated with different concentrations of mushroom extract fractions or purified verticillin A for 2 days. The cells were then incubated with MTT (3-(4,5-dimethylthiazol-2-yl)-2,5-diphenyltetrazolium bromide) using the MTT assay kit (ATCC, Manassas, Va.) according to the manufacturer's instructions.
(§2) To determine whether verticillin A inhibits other types of tumor cell growth, Mammary carcinoma (Bcap-37 and MCF-7), heptocarcinoma (HepG2), cervical (HeLa), liver (SMMC-7721), lung (SPC-A1) cancer cells and T cell leukemia (Jurkat) were cultured in the presence of different concentrations of verticillin A and examined for the efforts of verticillin A on the growth rate of these tumor cells in vitro.

Hela = experiment: MTT growth inhibition, Hela; format: cell-based; conditions: Homo sapiens, Cervical Cancer, MTT assay
Experimental: as §1, §2

SMMC-7721 = experiment: MTT growth inhibition, SMMC-7721; format: cell-based; conditions: Homo sapiens, Hepatoma, MTT assay
Experimental: as §1, §2

SPC-A1 = experiment: MTT growth inhibition, SPC-A1; format: cell-based; conditions: SPCA1, Lung Carcinoma, MTT assay
Experimental: as §1, §2

Jurkat = experiment: MTT growth inhibition, Jurkat; format: cell-based; conditions: Homo sapiens, T Cell Leukemia, MTT assay
Experimental: as §1, §2

HepG2 tumor = HepG2 tumor growth in athymic mice; format: in vivo; conditions: intravenous injection
Experimental: To determine whether the growth inhibitory effect of verticillin A can be extended to in vivo tumor growth inhibition, HepG2 cells were injected subcutaneously to athymic mice. Tumor-bearing mice were then treated with verticillin A by intravenous injection.
(§3) Athymic mice were subcutaneously inoculated with human hepatoma HepG2 and colon carcinoma SW620 cells, respectively. The tumor-bearing mice were randomized into experimental groups. The control mice were given saline. The treatment group was intravenously injected with verticillin A at the doses of 1 and 2 mg/kg body weight. Tumor size was measured in 2 diameter with micrometer caliper at the indicate times to permit calculation of tumor volume, V=(a×b^2)/2, where “a” is the length and “b” is the width in millimeters. At the end of the experiment, all the animals were sacrificed, The tumor inhibitory rates were calculated using the following formula: [(mean tumor volume of control nude mice−mean tumor volume of treated nude mice)/mean tumor volume of control nude mice]×100%.

SW620 cells = experiment: Apoptosis and TRAIL sensitization of SW620 cells (PI/annexin V flow cytometry); format: cell-based, human
Experimental: (§4) Cells were seeded in wells of 96-well plates for 2 days and then treated with different concentrations of mushroom extract fractions or purified verticillin A for 2 days. The cells were stained with propidium iodide (PI) (Trevigen, Gaithersburg, Md.) or PI plus annexin V-Alex Fluor 647 (Biolegend, San Diego, Calif.) and analyzed by flow cytometry.
SW620 is a metastatic human colon carcinoma cell line that is resistant to TRAIL-induced apoptosis (Voelkel-Johnson C, et al. Mol Cancer Ther 2005 4(9):1320-7).

[1] = tested on: 6 other human colon carcinoma cells; experiment: TRAIL sensitization in other colon carcinoma cells; format: cell-based; conditions: verticillin A and TRAIL
Experimental: as §4
The sensitization effects of verticillin A was examined in other types of tumor cells.

SW620 tumor xenograft = SW620 tumor xenograft growth in athymic mice; format: in vivo
Experimental: as §3
The disclosed observations indicate that verticillin A can dramatically increase TRAIL-induced tumor cell apoptosis. To determine whether these in vitro observations can be extended to enhance TRAIL-mediated tumor suppression in vivo, SW620 cells were injected subcutaneously to athymic mice, verticillin A and TRAIL, either used as single agent or in combination, were then injected to the tumor-bearing mice. Tumor growth rate were measured in different time points. Verticillin A can inhibit tumor cell growth in vitro at high dose and sensitize tumor cells to TRAIL-induced apoptosis at a low dose. […] As expected, SW620 tumors are resistant to TRAIL (Voelkel-Johnson C, et al. Mol Cancer Ther 2005 4(9):1320-7).

[2] = tested on: BNIP3, IRF8, Neurog1, p15ink4b, RUNX3; experiment: Expression of genes with methylated promoters; format: cell-based, human; conditions: SW620, verticillin A 0-50 nM
Experimental: To determine whether verticillin A inhibits DNA methylation in other gene promoters, 4 other genes (IRF8, Neurog1, p15ink4b, RUNX3) with known promoter DNA methylation in human colon carcinoma cells were selected. SW620 cells were treated with AzadC (0-1.0 μM) and verticillin A (0-50 nM), respectively, and analyzed for the expression of BNIP3 and these 4 genes.

TET1 = TET1 expression, RT-PCR; format: cell-based, human; conditions: colon carcinoma cells, dose-dependent
Experimental: FIG. 11A is an acrylamide gel showing that LS411N cells were treated with Verticillin A at the indicated concentrations for 24 h and analyzed for TET1, TET2 and TET3 level by RT-PCR.
TET1 is an enzyme with very recently identified function in converting 5-methylcytosine (5mC) to 5-hydroxylmethylcytosine (5hmC), and eventually to unmodified Cytosine to reverse DNA methylation (Veron N, Peters A H. Epigenetics: Tet proteins in the limelight. Nature 2011; 473:293-4; Ito et al. Tet proteins can convert 5-methylcytosine to 5-formylcytosine and 5-carboxylcytosine. Science 2011; 333:1300-3; Guo et al. Hydroxylation of 5-methylcytosine by TET1 promotes active DNA demethylation in the adult brain. Cell 2011; 145:423-34). […] Thus, Verticillin A is a small molecule TET1 activator. Verticillin A appears to be the first reported small molecule TET1 activator.

Molecule `CN1C(=O)[C@]23SS[C@]1(C)C(=O)N2C1Nc2ccccc2[C@@]1(C12c4ccccc4NC1N1C(=O)[C@@]4(C)SS[C@]1(C(=O)N4C)[C@H]2O)[C@@H]3O` (stereo partly shown) [Verticillin A] has an IC50 (MCF-7) of 64 nM, an IC50 (Hela) of 122 nM and an IC50 (SMMC-7721) of 80 nM. For the same molecule, the IC50 (SPC-A1) was 30 nM, the IC50 (Jurkat) was 37 nM and the “HepG2 tumor growth inhibition” value (HepG2 tumor; 2 mg/kg body weight) was “significantly inhibited HepG2 tumor growth”. The “HepG2 tumor growth inhibition, dose dependence” value (HepG2 tumor; 1 and 2 mg/kg body weight) was “tumor growth inhibitory effects at a dose-dependent manner”, the “sensitization to TRAIL-induced apoptosis” value (SW620 cells; SW620, 10 nM verticillin A in combination with TRAIL) was “dramatically sensitized SW620 cells to TRAIL-induced apoptosis” and the “apoptosis induction, single agent” value (SW620 cells; SW620, agent alone) was “induced significant apoptosis”. The “concentration that overcomes TRAIL resistance” value (SW620 cells; human cancer cells) was 10 nM, the “sensitization to TRAIL-induced apoptosis” value [1] was “sensitization effect of verticillin A was also observed” and the “tumor suppression activity, verticillin A alone” value (SW620 tumor xenograft; 0.125 mg/kg body weight) was “did not exhibit significant tumor suppression activity”. The “tumor xenograft growth, combination treatment” value (SW620 tumor xenograft; low dose verticillin A (0.125 mg/kg) and TRAIL) was “significantly inhibited the tumor xenograft growth”, the “lowest dose enhancing the efficacy of TRAIL in suppressing human cancer growth” value (SW620 tumor xenograft; nude mice) was 0.125 mg/kg and the “expression levels of BNIP3, IRF8, Neurog1, p15ink4b, RUNX3” value [2] was “dramatically increased the expression levels of BNIP3 and these 4 genes”. The TET1 expression (TET1) was “up-regulates TET1 expression”.
